Assay results taken from paper PMC5471252, “Anti-leukemia activity of a Hsp70 inhibitor and its hybrid molecules” (Scientific Reports, 2017).
“Also recorded” adds a separate entry of the source.

Key:
U937 cells = assay: MTT assay, cell viability of U937 cells; type: cell-based; details: Homo sapiens, U-937, 48 h, mean ± s.d., n = 3, read-out: IC50 values of compounds for leukemia cells
[1] = biological target: T1, ATPase domain (1-386 residues) of human Hsc70 (Homo sapiens, UniProt P11142); assay: STD NMR competition with ATP-γ-S; type: binding; details: ATP-γ-S in place of ATP, Az phosphate salt form
T1 construct: pET28a-human Hsc70 ATPase domain (1-386 residues); inferred from the pET28a vector and nickel-column purification; made in house; host or cells: E. coli BL21 (DE3)
Description: However, the detailed mode of Az binding to the proteins has not been elucidated. To gain information about the molecular basis of Az binding to Hsp70 proteins, NMR studies were carried out on a complex of Az with an ATPase domain (1-386 residues) of human Hsc70. Saturation transfer difference (STD) NMR studies were conducted initially to obtain information on Az binding to the ATPase domain of Hsc70[30]. […] Next, we evaluated whether Az affects binding of ATP to the ATPase domain. For STD experiments, less hydrolytic ATP-γ-S was used in place of ATP.
For STD experiments, 10 μM of an ATPase domain of Hsc70, 1 mM of ATP-γ-S and Az (a phosphate salt form) were used. For competition studies between ATP-γ-S and Az, STD of the sample with 5 μM ATPase domain of Hsc70 and 500 μM ATP-γ-S was initially measured, and further titrated with Az up to 1 mM. The ratios of ATP-γ-S to Az were 1:0, 1:1, 1:1.5, and 1:2. All STD NMR spectra were obtained using 20 mM solutions of deuterated Tris buffer with 5% (v/v) DMSO-d6 (pD 7.2).

HL-60 and K562 cells = assay: Flow cytometry, fluorescein-annexin V and PI staining; type: cell-based, human; details: 24 h; 10 µM Az, 10 µM GD or 4 µM Az-O3-GD
Description: To determine whether Az promotes leukemia cell death via apoptosis, acute leukemia HL-60 and chronic leukemia K562 cells were independently incubated with Az. The treated cells were then exposed to a mixed solution of fluorescein-annexin V and propidium iodide (PI) and flow cytometry analysis was conducted. […] The size of the treated cells was also assessed by using flow cytometry. […] We also investigated if the mitochondrial membrane potential in cells treated with Az is disrupted. To test this possibility, HL-60 and K562 cells were exposed to Az and subsequently stained with a membrane potential sensitive JC-1 probe. […] This serves as another evidence for apoptosis induced by Az.
HL-60 and K562 cells were incubated with each compound for 24 h in culture media. Cells were re-suspended with 500 μL binding buffer (10 mM HEPES, […] and 2.5 mM CaCl2, pH 7.5) and then incubated with the FITC-annexin V apoptosis detection kit with PI according to the protocol provided by the manufacturer. Flow cytometry was carried out by using a BD FACSVerse™ instrument (BD Biosciences) and the data were analyzed by using a FlowJo™ software (BD Biosciences).

[2] = system: caspase activity of HL-60 and K562 cells; assay: Caspase activity assay with Ac-DEVD-pNA in cell lysates; type: cell-based, human; details: lysates of cells treated 24 h
Description: Because Az inhibits the association of Hsp70 with Apaf-1, caspase associated proteolytic activities should increase in cells treated with Az. To determine whether this event occurs, caspase activities of HL-60 and K562 cells treated with Az were measured by using the colorimetric substrate, Ac-DEVD-pNA (pNA, p-nitroaniline). […] We also examined whether leukemia cells are protected from the effect of Az by ZVAD-FMK (benzyloxycarbonyl-Val-Ala-Asp(OMe) fluoromethyl ketone, a cell-permeable inhibitor of pan-caspases). HL-60 and K562 cells were pre-incubated with ZVAD-FMK for 3 h and subsequently exposed to Az.
HL-60 and K562 cells treated with each compound for 24 h were lysed in a buffer containing 50 mM HEPES (pH 7.4), 5 mM CHAPS and 5 mM DTT. Assay buffer containing 20 mM HEPES (pH 7.4), 0.01% CHAPS, 5 mM DTT and 2 mM EDTA was added to cell lysates. Caspase activity was measured in the absence or presence of acetyl-DEVD-pNA (200 μM) (Sigma-Aldrich) by using a microplate reader (monitored at 405 nm).

T1 sequence (P11142 1-386): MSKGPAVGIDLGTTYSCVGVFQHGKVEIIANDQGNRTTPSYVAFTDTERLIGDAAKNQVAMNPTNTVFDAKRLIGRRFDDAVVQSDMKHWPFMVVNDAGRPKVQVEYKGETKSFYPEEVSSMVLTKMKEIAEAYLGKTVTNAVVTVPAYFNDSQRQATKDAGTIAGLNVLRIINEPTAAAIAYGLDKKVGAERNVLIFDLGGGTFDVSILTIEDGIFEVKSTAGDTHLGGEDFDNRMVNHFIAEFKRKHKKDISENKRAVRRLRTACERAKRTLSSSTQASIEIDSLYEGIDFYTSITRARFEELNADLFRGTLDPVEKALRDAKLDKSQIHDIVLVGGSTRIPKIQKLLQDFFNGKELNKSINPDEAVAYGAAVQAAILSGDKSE

## COc1ccc(-c2nc(-c3cc(C(F)(F)F)cc(C(F)(F)F)c3)n(Cc3ccc(C(=O)NCCOCCOCCN)cc3)c2-c2ccc(OC)cc2)cc1 [Az, apoptozole]
U937 cells
  IC50: 4.7 ± 0.77 µM
[1]
  effect on binding of ATP to the ATPase domain: blocks ATP binding
HL-60 and K562 cells
  apoptosis, annexin V binding and PI uptake: positive annexin V binding and positive PI uptake; also recorded: induces apoptosis
[2]
  caspase activity of treated cells: increase
